Tests used:
[1] = Microsomal clearance, dog; type: in vitro ADME; conditions: male, Beagle, pooled liver microsomes
Experimental: (§1) Pooled human liver microsomes (pooled male and female), pooled rat liver microsomes (male Sprague Dawley rats) and pooled dog liver microsomes (male Beagle dog) are purchased from a reputable commercial supplier and stored at −80° C. prior to use.
(§2) Microsomes (final protein concentration 0.5 mg/mL), 0.1 M phosphate buffer pH 7.4 and compound 2 (final substrate concentration 3 μM; final DMSO concentration 0.25%) are pre-incubated at 37° C. prior to the addition of NADPH (final concentration 1 mM) to initiate the reaction. The final incubation volume is 50 μL. A control incubation is included for each compound tested where 0.1 M phosphate buffer pH 7.4 is added instead of NADPH (minus NADPH). Two control compounds are included with each species. All incubations are performed singularly for each test compound.
(§3) Compounds are incubated for 0, 5, 15, 30 and 45 min. The control (minus NADPH) is incubated for 45 min only. The reactions are stopped by transferring 25 μL of incubate to 50 μL methanol at the appropriate time points. […] Following protein precipitation, the sample supernatants are combined in cassettes of up to 4 compounds, internal standard is added and samples analysed by LC-MS/MS. From a plot of ln peak area ratio (compound peak area/internal standard peak area) against time, the gradient of the line is determined.

[2] = Microsomal clearance, human; type: in vitro ADME; conditions: both, pooled liver microsomes
Experimental: as §1, §2, §3

MDR1-MDCK cells = assay: MDR1-MDCK permeability assay; type: in vitro ADME
Experimental: (§4) MDR1-MDCK cells obtained from the NIH (Rockville, Md., USA) are used between passage numbers 6-30. Cells are seeded onto Millipore Multiscreen Transwell plates at 3.4×10^5 cells/cm^2. The cells are cultured in DMEM and media is changed on day 3. On day 4 the permeability study is performed. Cell culture and assay incubations are carried out at 37° C. in an atmosphere of 5% CO2 with a relative humidity of 95%. On the day of the assay, the monolayers are prepared by rinsing both basolateral and apical surfaces twice with Hanks Balanced Salt Solution (HBSS) at the desired pH warmed to 37° C. Cells are then incubated with HBSS at the desired pH in both apical and basolateral compartments for 40 min to stabilise physiological parameters.
(§5) The dosing solutions are prepared by diluting compound 2 with assay buffer to give a final compound 2 concentration of 10 μM (final DMSO concentration of 1% v/v). The fluorescent integrity marker lucifer yellow is also included in the dosing solution. Analytical standards are prepared from test compound DMSO dilutions and transferred to buffer, maintaining a 1% v/v DMSO concentration.
(§6) For assessment of A-B permeability, HBSS is removed from the apical compartment and replaced with compound 2 dosing solution. The apical compartment insert is then placed into a companion plate containing fresh buffer (containing 1% v/v DMSO). For assessment of B-A permeability, HBSS is removed from the companion plate and replaced with compound 2 dosing solution. Fresh buffer (containing 1% v/v DMSO) is added to the apical compartment insert, which is then placed into the companion plate.
(§7) At 60 min the apical compartment inserts and the companion plates are separated and apical and basolateral samples diluted for analysis.
(§8) Compound 2 permeability is assessed in duplicate. Compounds of known permeability characteristics are run as controls on each assay plate.
(§9) Compound 2 and control compounds are quantified by LC-MS/MS cassette analysis using an 8-point calibration with appropriate dilution of the samples. The starting concentration (Co) is determined from the dosing solution and the experimental recovery calculated from Co and both apical and basolateral compartment concentrations.
(§10) The integrity of the monolayer throughout the experiment is checked by monitoring lucifer yellow permeation using fluorimetric analysis. Lucifer yellow permeation is high if monolayers have been damaged.

MDR1 = assay: MDR1-MDCK permeability assay; type: in vitro ADME; conditions: dog
Experimental: as §4, §5, §6, §7, §8, §9, §10

[3] = Cell cytotoxicity CC50 assay (A549 and HeLa cells); type: cell-based; conditions: human, 6-8 days, DMEM+2% FCS
Text: (§11) Cells were obtained from ATCC and the virus preparation was subjected to one round of centrifugation through a 40% (V/V) glycerol to remove any interferon produced from infected cells. Growth medium was Dulbecco's modified Eagle's medium (DMEM) with 10% (v/v) foetal calf serum (FCS), Viral maintainance medium was DMEM+2% (v/v) FCS.
Cell Cytotoxicity—CC50 (Concentration at which 50% Cell Toxicity is Observed):
(§12) A549 cells and HeLa cells were used to seed a set of 96 well plates grown until 50% confluent, a 2 fold serial dilution of the compound was performed on each cell line with DMSO (only) as control starting with 100 μM of the compound. Medium used was DMEM+2% FCS (normal medium for viral growth).
(§13) Cells were allowed to grow for 6-8 days to mimic a TCID50 assay after which cell viability was determined by adding Almar blur (similar to XT) and reading at 600 nm (excitation 540 nm).

MTT cell toxicity assay = type: cell-based; conditions: African green monkey, Vero cells
Experimental: Vero cells were seeded in 96-well plates in a volume of 100 μL Optimem media supplemented with 1% FBS at a concentration of 1×10^4 cells per well. After an overnight incubation at 37° C. in a humidified 5% CO2 atmosphere, the monolayer of cells should be approximately 90% confluent. Compound 2 was titrated in pre-warmed Serum Free (SF) Optimem in a U-bottom 96 well plate. For compounds in a DMSO solution, titration in 100% DMSO was performed first and each concentration added individually to a 2× final concentration at 4% DMSO. Media was then removed from cells and replaced with titrated compounds (100 μl/well). Cells were incubated at 37° C. in a humidified 5% CO2 atmosphere for 48 hours.
The MTT solution on Optimem (4 mg/ml) was prepared and 2 ul added to each well before it was incubated for 2 hours at 37° C. in a humidified 5% CO2 atmosphere. Media was then removed from the cells and DMSO added (50 ul/well). Plates were placed on a shaker prior to reading in a Spectromax at 570 nm. Data was normalised relative to untreated controls (1% DMSO only) and CC50 values determined using non-linear regression analysis with Graphpad Prism software.

[4] = Microsomal clearance, rat; type: in vitro ADME; conditions: male, Sprague Dawley, pooled liver microsomes
Experimental: as §1, §2, §3

RSV = assay: Cytopathic effect (CPE) assay; type: cell-based; conditions: human respiratory syncytial virus; A549 cells and HeLa cells, 6-8 days, DMEM+2% FCS; read-out: CPE IC50
Text: as §11
Cytopathic Effect (CPE) Assay—IC50:
as §12, §13

In the case of `O=C(CNc1c(F)c(F)nc(F)c1F)N[C@H]1N=C(c2ccccc2)c2ccccc2NC1=O` [Compound 2], the microsomal CLint at 3 μM ([1]; pH 7.4, 0.5 mg/mL protein, read-out: Intrinsic clearance - dog) is reported as 7.05 µL/min/mg, the half-life at 3 μM ([1]; pH 7.4, read-out: t½ - dog) is reported as 197 min and the microsomal CLint at 3 μM ([2]; pH 7.4, 0.5 mg/mL protein, read-out: Intrinsic clearance - human) is reported as 52.6 µL/min/mg. For the same molecule, the half-life at 3 μM ([2]; pH 7.4, read-out: t½ - human) was 26.3 min, the “Permeability assessment in words” value (MDR1-MDCK cells) was “permeable compound but with a susceptibility for an efflux mechanism” and the Papp A→B at 60 min, 10 μM (MDR1; 10 μM, 60 min, read-out: Permeability A2B) was 0.553 ×10⁻⁶ cm/s. For the same molecule, the Papp B→A at 60 min, 10 μM (MDR1; 10 μM, 60 min, read-out: Permeability B2A) was 76.3 ×10⁻⁶ cm/s, the efflux ratio at 60 min, 10 μM (MDR1; read-out: Efflux ratio B2A/A2B) was 138 and the CC50 [3] was 100 µM. It also gave a CC50 at 48 h (MTT cell toxicity assay) of 63 µM, a microsomal CLint at 3 μM ([4]; pH 7.4, 0.5 mg/mL protein, read-out: Intrinsic clearance - rat) of 29.2 µL/min/mg and a half-life at 3 μM ([4]; pH 7.4, read-out: t½ - rat) of 47.5 min. For the same molecule, the IC50 (RSV) was 0.625 µM.

— patent US11247973B2 (The University of Durham, priority 2016, dated 2022)
